Tested on: adult patients with uncontrolled gout
Assay: Serum uric acid (sUA) levels and sUA responder rate, open-label study of pegloticase with MTX (MIRROR OL)
Assay type: in vivo, human
Details: mITT Population
Method: The primary objective is to estimate the response rate during Month 6 (Weeks 20, 22, and 24), as measured by the sustained normalization of serum uric acid (SUA) to <6 mg/dL for at least 80% of the time during Month 6 in subjects receiving KXX with MTX.
The primary efficacy outcome endpoint is the sustained normalization of SUA to <6 mg/dL for at least 80% of the time during month 6 (weeks 20, 22, and 24) in subjects receiving KXX with MTX. […] Participants who achieve this endpoint were classified as “responders.” Serum uric acid (SUA) responders may also be defined as participants achieving and maintaining SUA <6 mg/dL for at least 80% of the time during Month 6 (Weeks 20, 22, and 24).
Blood samples may be collected prior to each pegloticase infusion for measurement of SUA levels using the Beckman Coulter AU System Uric Acid procedure. Participants were declared “non-responders” if there were SUA measures >6 mg/dL at 2 consecutive study visits beginning with the week 2 visit. […] This assumption and subsequent discontinuation of pegloticase was consistent with the protocol of large phase III randomized controlled trials and the product label. A formal stopping rule was 2 occasions of SUA levels of greater than 6 mg/dL.
Clinical Chemistry—Blood samples were collected prior to each pegloticase infusion for measurement of SUA levels (primary efficacy parameter) using the Beckman Coulter AU System Uric Acid procedure. In this procedure uric acid is converted to hydrogen peroxide. Hydrogen peroxide reacts with reagent to produce a chromophore which is read bichromatically at 660/800 nm. The amount of dye formed is proportional to the uric acid concentration in the sample.
Serum samples for measurement of SUA levels were collected at the Screening Visit, the Week −4 Visit (prior to the first dose of MTX), and the Week −2 Visit during the MTX Run-in Period; within 48 hours prior to each pegloticase infusion and after the end of each pegloticase infusion prior to discharge from the site during the Pegloticase+IMM Period; at the non-infusion Week 52/End of Study/Early Termination Visits and at the Post Treatment 3 and 6 Month Follow-up Visits. Additional serum samples for SUA levels were collected at optional non-infusion (Frequent Sampling) Visits at Weeks 1 and 7. […] Subjects with SUA level >6 mg/dL at 2 consecutive visits beginning at Week 2 visit discontinued treatment, completed the End of Pegloticase Infusion Visit procedures within 2 weeks and continued the subject visits according to the protocol (without treatment).
Efficacy analyses were performed using the modified intention-to-treat (mITT) population, defined as all enrolled subjects who received ≥1 dose of pegloticase. The proportion of Month 6 responders was summarized, along with a 95% confidence interval for the proportion. The proportion of Month 3 and overall (Months 3 and 6 combined) responders was analyzed similarly.
A subject was declared a non-responder if the subject had SUA level >6 mg/dL at 2 consecutive study visits beginning with the Week 2 Visit. In addition, a subject who withdraws from study treatment for any reason after the first dose of pegloticase in the KXX+MTX Period and prior to Month 6 (for the primary endpoint) or Month 3 (for the secondary endpoint) was considered a non-responder if SUA values were not collected at the planned time points.
Patients were administered oral MTX (15 mg/week) and folate (1 mg/day) 4 weeks prior to the first pegloticase infusion (Day 1) and throughout the pegloticase treatment period. Blood was drawn prior to each infusion to measure sUA level, monitor clinical parameters, and examine for ADA development. All patients followed typical IR prophylaxis protocols (fexofenadine one day before and the morning of each infusion and acetaminophen and IV corticosteroid the morning of each infusion).

Q: With pegloticase as the substance, how does the “Serum Uric Acid, Change from Baseline, Mean (SD)” value (shortened to “Serum Uric Acid, Change … (SD)”) (Week 20 - Post-Infusion) read?
A: Its value is −8.97 (2.810) mg/dL.

Q: What about the “Serum Uric Acid, Change from Baseline, Median” value (Week 20 - Post-Infusion) of the same substance?
A: Its value is -8.80 mg/dL.

Q: What about the “Serum Uric Acid, Observed, Mean (SD)” value (Week 20 - Post-Infusion) of the same substance?
A: The value was 0.30 (0.000) mg/dL.

Q: What about the “Serum Uric Acid, Observed, Median” value (Week 20 - Post-Infusion) of the same substance?
A: Its value is 0.30 mg/dL.

Q: And the “sUA <6 mg/dL, n (%)” value (Week 20 - Post-Infusion)?
A: The value was 11 (100%).

Q: What about the “Serum Uric Acid, Change … (SD)” value (Week 20 - Pre-Infusion) of the same substance?
A: Its value is −8.97 (2.810) mg/dL.

Q: And the “Serum Uric Acid, Change from Baseline, Median” value (Week 20 - Pre-Infusion)?
A: The value was -8.80 mg/dL.

Q: What about the “Serum Uric Acid, Observed, Mean (SD)” value (Week 20 - Pre-Infusion) of the same substance?
A: Its value is 0.30 (0.000) mg/dL.

Q: What about the “Serum Uric Acid, Observed, Median” value (Week 20 - Pre-Infusion) of the same substance?
A: The value was 0.30 mg/dL.

Q: And the “sUA <6 mg/dL, n (%)” value (Week 20 - Pre-Infusion)?
A: The value was 11 (100%).

Q: And the “Serum Uric Acid, Change … (SD)” value (Week 22 - Post-Infusion)?
A: Its value is −8.97 (2.810) mg/dL.

Q: And the “Serum Uric Acid, Change from Baseline, Median” value (Week 22 - Post-Infusion)?
A: The value was -8.80 mg/dL.

Q: What about the “Serum Uric Acid, Observed, Mean (SD)” value (Week 22 - Post-Infusion) of the same substance?
A: The value was 0.30 (0.000) mg/dL.

Q: What about the “Serum Uric Acid, Observed, Median” value (Week 22 - Post-Infusion) of the same substance?
A: The value was 0.30 mg/dL.

Q: And the “sUA <6 mg/dL, n (%)” value (Week 22 - Post-Infusion)?
A: Its value is 11 (100%).

Q: What about the “Serum Uric Acid, Change … (SD)” value (Week 22 - Pre-Infusion) of the same substance?
A: The value was −8.97 (2.810) mg/dL.

Q: And the “Serum Uric Acid, Change from Baseline, Median” value (Week 22 - Pre-Infusion)?
A: The value was -8.80 mg/dL.

Q: What about the “Serum Uric Acid, Observed, Mean (SD)” value (Week 22 - Pre-Infusion) of the same substance?
A: The value was 0.30 (0.000) mg/dL.

Q: What about the “Serum Uric Acid, Observed, Median” value (Week 22 - Pre-Infusion) of the same substance?
A: Its value is 0.30 mg/dL.

Q: And the “sUA <6 mg/dL, n (%)” value (Week 22 - Pre-Infusion)?
A: The value was 11 (100%).

Q: And the “Serum Uric Acid, Change … (SD)” value (Week 24 - Post-Infusion)?
A: Its value is −9.18 (4.135) mg/dL.

Q: What about the “Serum Uric Acid, Change from Baseline, Median” value (Week 24 - Post-Infusion) of the same substance?
A: The value was -9.30 mg/dL.

Q: What about the “Serum Uric Acid, Observed, Mean (SD)” value (Week 24 - Post-Infusion) of the same substance?
A: The value was 0.30 (0.000) mg/dL.

Q: And the “Serum Uric Acid, Observed, Median” value (Week 24 - Post-Infusion)?
A: The value was 0.30 mg/dL.

Q: And the “sUA <6 mg/dL, n (%)” value (Week 24 - Post-Infusion)?
A: The value was 5 (100%).

Q: And the “Serum Uric Acid, Change … (SD)” value (Week 24 - Pre-Infusion)?
A: The value was −8.97 (2.810) mg/dL.

Q: What about the “Serum Uric Acid, Change from Baseline, Median” value (Week 24 - Pre-Infusion) of the same substance?
A: The value was -8.80 mg/dL.

Q: And the “Serum Uric Acid, Observed, Mean (SD)” value (Week 24 - Pre-Infusion)?
A: Its value is 0.30 (0.000) mg/dL.

Q: What about the “Serum Uric Acid, Observed, Median” value (Week 24 - Pre-Infusion) of the same substance?
A: The value was 0.30 mg/dL.

Q: And the “sUA <6 mg/dL, n (%)” value (Week 24 - Pre-Infusion)?
A: The value was 11 (100%).

Q: And the “Serum Uric Acid, Change … (SD)” value (Week 26 - Pre-Infusion)?
A: Its value is −9.11 (3.293) mg/dL.

Q: And the “Serum Uric Acid, Change from Baseline, Median” value (Week 26 - Pre-Infusion)?
A: Its value is -8.95 mg/dL.

Q: And the “Serum Uric Acid, Observed, Mean (SD)” value (Week 26 - Pre-Infusion)?
A: The value was 0.30 (0.000) mg/dL.

Q: What about the “Serum Uric Acid, Observed, Median” value (Week 26 - Pre-Infusion) of the same substance?
A: Its value is 0.30 mg/dL.

Q: What about the “sUA <6 mg/dL, n (%)” value (Week 26 - Pre-Infusion) of the same substance?
A: The value was 8 (100%).

Q: And the “Serum Uric Acid, Change … (SD)” value (Week 28 - Pre-Infusion)?
A: Its value is −9.11 (3.293) mg/dL.

Q: And the “Serum Uric Acid, Change from Baseline, Median” value (Week 28 - Pre-Infusion)?
A: Its value is -8.95 mg/dL.

Q: And the “Serum Uric Acid, Observed, Mean (SD)” value (Week 28 - Pre-Infusion)?
A: The value was 0.30 (0.000) mg/dL.

Q: What about the “Serum Uric Acid, Observed, Median” value (Week 28 - Pre-Infusion) of the same substance?
A: The value was 0.30 mg/dL.

Q: And the “sUA <6 mg/dL, n (%)” value (Week 28 - Pre-Infusion)?
A: Its value is 8 (100%).

Q: What about the “Serum Uric Acid, Change … (SD)” value (Week 30 - Pre-Infusion) of the same substance?
A: Its value is −9.11 (3.293) mg/dL.

Q: What about the “Serum Uric Acid, Change from Baseline, Median” value (Week 30 - Pre-Infusion) of the same substance?
A: The value was -8.95 mg/dL.

Q: What about the “Serum Uric Acid, Observed, Mean (SD)” value (Week 30 - Pre-Infusion) of the same substance?
A: Its value is 0.30 (0.000) mg/dL.

Q: What about the “Serum Uric Acid, Observed, Median” value (Week 30 - Pre-Infusion) of the same substance?
A: Its value is 0.30 mg/dL.

Q: And the “sUA <6 mg/dL, n (%)” value (Week 30 - Pre-Infusion)?
A: The value was 8 (100%).

Q: What about the “Serum Uric Acid, Change … (SD)” value (Week 32 - Post-Infusion) of the same substance?
A: The value was −9.11 (3.293) mg/dL.

Q: What about the “Serum Uric Acid, Change from Baseline, Median” value (Week 32 - Post-Infusion) of the same substance?
A: The value was -8.95 mg/dL.

Q: What about the “Serum Uric Acid, Observed, Mean (SD)” value (Week 32 - Post-Infusion) of the same substance?
A: The value was 0.30 (0.000) mg/dL.

Q: And the “Serum Uric Acid, Observed, Median” value (Week 32 - Post-Infusion)?
A: The value was 0.30 mg/dL.

Q: What about the “sUA <6 mg/dL, n (%)” value (Week 32 - Post-Infusion) of the same substance?
A: Its value is 8 (100%).

Q: What about the “Serum Uric Acid, Change … (SD)” value (Week 32 - Pre-Infusion) of the same substance?
A: The value was −8.99 (2.961) mg/dL.

Q: And the “Serum Uric Acid, Change from Baseline, Median” value (Week 32 - Pre-Infusion)?
A: Its value is -8.95 mg/dL.

Q: And the “Serum Uric Acid, Observed, Mean (SD)” value (Week 32 - Pre-Infusion)?
A: Its value is 0.30 (0.000) mg/dL.

Q: What about the “Serum Uric Acid, Observed, Median” value (Week 32 - Pre-Infusion) of the same substance?
A: Its value is 0.30 mg/dL.

Q: And the “sUA <6 mg/dL, n (%)” value (Week 32 - Pre-Infusion)?
A: The value was 10 (100%).

Q: What about the “Serum Uric Acid, Change … (SD)” value (Week 34 - Post-Infusion) of the same substance?
A: Its value is −9.11 (3.293) mg/dL.

Q: And the “Serum Uric Acid, Change from Baseline, Median” value (Week 34 - Post-Infusion)?
A: Its value is -8.95 mg/dL.

Q: What about the “Serum Uric Acid, Observed, Mean (SD)” value (Week 34 - Post-Infusion) of the same substance?
A: The value was 0.30 (0.000) mg/dL.

Q: What about the “Serum Uric Acid, Observed, Median” value (Week 34 - Post-Infusion) of the same substance?
A: The value was 0.30 mg/dL.

Q: And the “sUA <6 mg/dL, n (%)” value (Week 34 - Post-Infusion)?
A: Its value is 8 (100%).

Q: What about the “Serum Uric Acid, Change … (SD)” value (Week 34 - Pre-Infusion) of the same substance?
A: Its value is −8.47 (3.248) mg/dL.

Q: And the “Serum Uric Acid, Change from Baseline, Median” value (Week 34 - Pre-Infusion)?
A: Its value is -7.95 mg/dL.

Source: US20220409620A1, “REDUCING IMMUNOGENICITY TO PEGLOTICASE” (Horizon Pharma Rheumatology LLC, priority 2016, published 2022)
